# Assay results as given in patent publication US9388140B2, “Substituted benzimidazoles” (priority 2011, dated 2016).
# Biological target: human kinase Mps-1 (Homo sapiens (Human), UniProt P33981)
# Experiment: Mps-1 kinase assay (TR-FRET)
# Assay type: biochemical
# Settings: N-terminally GST-tagged human full length recombinant Mps-1; 10 μM ATP; 1 μM biotinylated peptide substrate; read-out: Mps1 IC50
# Experimental: The human kinase Mps-1 phosphorylates a biotinylated substrate peptide. Detection of the phosphorylated product is achieved by time-resolved fluorescence resonance energy transfer (TR-FRET) from Europium-labelled anti-phospho-Serine/Threonine antibody as donor to streptavidin labelled with cross-linked allophycocyanin (SA-XLent) as acceptor. Compounds are tested for their inhibition of the kinase activity.
# N-terminally GST-tagged human full length recombinant Mps-1 kinase (purchased from Invitrogen, Karslruhe, Germany, cat. no PV4071) was used. As substrate for the kinase reaction a biotinylated peptide of the amino-acid sequence […] (C-terminus in amide form, purchased from Biosynthan GmbH, Berlin) was used.
# The concentration of Mps-1 in the assay was adjusted to the activity of the enzyme lot and was chosen appropriate to have the assay in the linear range, typical enzyme concentrations were in the range of about 1 nM (final conc. in the 5 μl assay volume).
# The resulting mixture was incubated 1 h at 22° C. to allow the binding of the phosphorylated peptide to the anti-phospho(Ser/Thr)-Europium-antibody. Subsequently the amount of phosphorylated substrate was evaluated by measurement of the resonance energy transfer from the Europium-labelled anti-phospho(Ser/Thr) antibody to the Streptavidin-XLent.
# Chain of human kinase Mps-1 (P33981 whole entry): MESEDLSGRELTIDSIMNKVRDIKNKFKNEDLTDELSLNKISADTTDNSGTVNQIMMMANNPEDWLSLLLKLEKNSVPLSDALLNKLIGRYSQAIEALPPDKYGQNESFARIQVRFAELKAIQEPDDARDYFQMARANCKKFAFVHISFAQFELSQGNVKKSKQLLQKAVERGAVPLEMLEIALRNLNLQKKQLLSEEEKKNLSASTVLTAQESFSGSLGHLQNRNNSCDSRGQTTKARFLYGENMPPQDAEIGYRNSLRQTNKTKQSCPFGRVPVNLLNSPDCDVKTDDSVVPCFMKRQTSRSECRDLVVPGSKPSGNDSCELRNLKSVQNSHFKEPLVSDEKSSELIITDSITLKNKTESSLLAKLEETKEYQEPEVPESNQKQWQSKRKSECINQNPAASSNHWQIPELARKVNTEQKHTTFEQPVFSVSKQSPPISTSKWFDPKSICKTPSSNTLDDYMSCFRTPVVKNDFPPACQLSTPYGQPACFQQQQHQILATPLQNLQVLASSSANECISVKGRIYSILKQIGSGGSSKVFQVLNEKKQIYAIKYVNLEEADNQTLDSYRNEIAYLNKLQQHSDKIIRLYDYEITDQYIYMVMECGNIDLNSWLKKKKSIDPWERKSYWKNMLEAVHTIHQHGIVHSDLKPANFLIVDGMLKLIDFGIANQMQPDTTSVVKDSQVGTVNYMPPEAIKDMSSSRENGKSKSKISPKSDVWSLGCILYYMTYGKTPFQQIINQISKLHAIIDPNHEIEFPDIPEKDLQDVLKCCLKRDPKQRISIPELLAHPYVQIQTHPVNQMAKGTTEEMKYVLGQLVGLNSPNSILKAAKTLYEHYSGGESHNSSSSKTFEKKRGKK
row,Compound,IC50 [nM]
1,"Cc1cc(-n2cnc3c(NCCC(F)(F)F)cc(-c4ccncc4)cc32)ccc1C(=O)NC1CC1 [Example 2, N-cyclopropyl-2-methyl-4-{6-(pyridin-4-yl)-4-[(3,3,3-trifluoropropyl)amino]-1H-benzimidazol-1-yl}benzamide]",0.2
2,"Cc1ccc(F)cc1Nc1cc(NCCC(F)(F)F)c2ncn(-c3ccc(C(=O)NC4CC4)c(C)c3)c2c1 [Example 3, N-Cyclopropyl-4-{6-[(5-fluoro-2-methylphenyl)amino]-4-[(3,3,3-trifluoropropyl)amino]-1H-benzimidazol-1-yl}-2-methylbenzamide]",1.5
3,"Cc1cc(-n2cnc3c(NCCC(F)(F)F)cc(Oc4cccc(F)c4)cc32)ccc1C(=O)NC1CC1 [Example 4, N-cyclopropyl-4-{6-(3-fluorophenoxy)-4-[(3,3,3-trifluoropropyl)amino]-1H-benzimidazol-1-yl}-2-methylbenzamide]",0.7
4,"Cc1cc(-n2cnc3c(NCCC(F)(F)F)cc(Nc4cccc(F)c4F)cc32)ccc1C(=O)NC1CC1 [Example 5, N-cyclopropyl-4-{6-[(2,3-difluorophenyl)amino]-4-[(3,3,3-trifluoropropyl)amino]-1H-benzimidazol-1-yl}-2-methylbenzamide]",2.3
5,"CC(C)CNc1cc(Br)cc2c1ncn2-c1ccc(C(=O)NC2CC2)cc1 [Example 6, 4-{6-bromo-4-[(2-methylpropyl)amino]-1H-benzimidazol-1-yl}-N-cyclopropylbenzamide]",16.6
6,"CC(C)CNc1cc(-c2ccc(F)cc2)cc2c1ncn2-c1ccc(C(=O)NC2CC2)cc1 [Example 7, N-cyclopropyl-4-{6-(4-fluorophenyl)-4-[(2-methylpropyl)amino]-1H-benzimidazol-1-yl}benzamide]",1.9
7,"Cc1cc(-n2cnc3c(NCC4CCOCC4)cc(Oc4cccc(F)c4)cc32)ccc1C(=O)NC1CC1 [Example 9, N-cyclopropyl-4-{6-(3-fluorophenoxy)-4-[(tetrahydro-2H-pyran-4-ylmethyl)amino]-1H-benzimidazol-1-yl}-2-methylbenzamide]",0.4
8,"CNC(=O)c1ccc(-n2cnc3c(NCCC(F)(F)F)cc(Oc4cccc(F)c4)cc32)cc1C [Example 10, 4-{6-(3-Fluorophenoxy)-4-[(3,3,3-trifluoropropyl)amino]-1H-benzimidazol-1-yl}-N,2-dimethylbenzamide]",4.7
9,"CCNC(=O)c1ccc(-n2cnc3c(NCCC(F)(F)F)cc(Oc4cccc(F)c4)cc32)cc1C [Example 11, N-ethyl-4-{6-(3-fluorophenoxy)-4-[(3,3,3-trifluoropropyl)amino]-1H-benzimidazol-1-yl}-2-methylbenzamide]",6.6
10,"Cc1cc(-n2cnc3c(NCCC(F)(F)F)cc(Oc4cccc(F)c4)cc32)ccc1C(=O)NC1(C)CC1 [Example 12, 4-{6-(3-Fluorophenoxy)-4-[(3,3,3-trifluoropropyl)amino]-1H-benzimidazol-1-yl}-2-methyl-N-(1-methylcyclopropyl)benzamide]",15.3
11,"Cc1cc(-n2cnc3c(NCCC(F)(F)F)cc(Oc4cccc(F)c4)cc32)ccc1C(=O)NC1(C#N)CC1 [Example 13, N-(1-cyanocyclopropyl)-4-{6-(3-fluorophenoxy)-4-[(3,3,3-trifluoropropyl)amino]-1H-benzimidazol-1-yl}-2-methylbenzamide]",48.7
12,"Cc1cc(-n2cnc3c(NCCC(F)(F)F)cc(Oc4cccc(F)c4F)cc32)ccc1C(=O)NC1CC1 [Example 14, N-cyclopropyl-4-{6-(2,3-difluorophenoxy)-4-[(3,3,3-trifluoropropyl)amino]-1H-benzimidazol-1-yl}-2-methylbenzamide]",0.5
13,"Cc1cc(F)cc(Oc2cc(NCC3CCOCC3)c3ncn(-c4ccc(C(=O)NC5CC5)c(C)c4)c3c2)c1 [Example 15, N-cyclopropyl-4-{6-(3-fluoro-5-methylphenoxy)-4-[(tetrahydro-2H-pyran-4-ylmethyl)amino]-1H-benzimidazol-1-yl}-2-methylbenzamide]",0.6
14,"Cc1ccc(F)cc1Oc1cc(NCC2CCOCC2)c2ncn(-c3ccc(C(=O)NC4CC4)c(C)c3)c2c1 [Example 16, N-cyclopropyl-4-{6-(5-fluoro-2-methylphenoxy)-4-[(tetrahydro-2H-pyran-4-ylmethyl)amino]-1H-benzimidazol-1-yl}-2-methylbenzamide]",0.6
15,"Cc1cc(-n2cnc3c(NCC4CCOCC4)cc(Oc4ccc(F)c(F)c4)cc32)ccc1C(=O)NC1CC1 [Example 17, N-cyclopropyl-4-{6-(3,4-difluorophenoxy)-4-[(tetrahydro-2H-pyran-4-ylmethyl)amino]-1H-benzimidazol-1-yl}-2-methylbenzamide]",1.1
16,"Cc1cc(-n2cnc3c(NCCC(F)(F)F)cc(-c4ccnn4C)cc32)ccc1C(=O)NC1CC1 [Example 30, N-cyclopropyl-2-methyl-4-{6-(1-methyl-1H-pyrazol-5-yl)-4-[(3,3,3-trifluoropropyl)amino]-1H-benzimidazol-1-yl}benzamide]",4.8

# The remaining lines, values ahead:
row,IC50 [nM],Compound
1,2.7,"COc1ccc(C(C)(O)c2cc(NCCC(F)(F)F)c3ncn(-c4ccc(C(=O)NC5CC5)c(C)c4)c3c2)cc1F (racemic) [Example 103A, N-cyclopropyl-4-{6-[(1RS)-1-(3-fluoro-4-methoxyphenyl)-1-hydroxyethyl]-4-[(3,3,3-trifluoropropyl)amino]-1H-benzimidazol-1-yl}-2-methylbenzamide]"
2,2.9,"COc1ccc(C(C)c2cc(NCCC(F)(F)F)c3ncn(-c4ccc(C(=O)NC5CC5)c(C)c4)c3c2)cc1F (racemic) [Example 105, N-cyclopropyl-4-{6-[(1RS)-1-(3-fluoro-4-methoxyphenyl)ethyl]-4-[(3,3,3-trifluoropropyl)amino]-1H-benzimidazol-1-yl}-2-methylbenzamide]"
3,2.4,"Cc1cc(-n2cnc3c(NCCC(F)(F)F)cc(Oc4ccc(Cl)cc4)cc32)ccc1C(=O)NC1CC1 [Example 18, 4-{6-(4-Chlorophenoxy)-4-[(3,3,3-trifluoropropyl)amino]-1H-benzimidazol-1-yl}-N-cyclopropyl-2-methylbenzamide]"
4,1.2,"Cc1ccc(F)cc1Nc1cc(NCC2CCOCC2)c2ncn(-c3ccc(C(=O)NC4CC4)c(C)c3)c2c1 [Example 19, N-cyclopropyl-4-{6-[(5-fluoro-2-methylphenyl)amino]-4-[(tetrahydro-2H-pyran-4-ylmethyl)amino]-1H-benzimidazol-1-yl}-2-methylbenzamide]"
5,1.5,"Cc1cc(-n2cnc3c(NCC4CCOCC4)cc(-c4ccccc4CO)cc32)ccc1C(=O)NC1CC1 [Example 20, N-cyclopropyl-4-{6-[2-(hydroxymethyl)phenyl]-4-[(tetrahydro-2H-pyran-4-ylmethyl)amino]-1H-benzimidazol-1-yl}-2-methylbenzamide]"
6,1.8,"Cc1cc(-n2cnc3c(NCCC(F)(F)F)cc(-c4ccccc4CO)cc32)ccc1C(=O)NC1CC1 [Example 21, N-cyclopropyl-4-{6-[2-(hydroxymethyl)phenyl]-4-[(3,3,3-trifluoropropyl)amino]-1H-benzimidazol-1-yl}-2-methylbenzamide]"
7,2.7,"Cc1cc(-n2cnc3c(NCC4CCOCC4)cc(Oc4ccc(Cl)c(F)c4)cc32)ccc1C(=O)NC1CC1 [Example 22, 4-{6-(4-Chloro-3-fluorophenoxy)-4-[(tetrahydro-2H-pyran-4-ylmethyl)amino]-1H-benzimidazol-1-yl}-N-cyclopropyl-2-methylbenzamide]"
8,2.2,"Cc1cc(-n2cnc3c(NCC4CCOCC4)cc(Oc4ccc(Cl)cc4)cc32)ccc1C(=O)NC1CC1 [Example 23, 4-{6-(4-Chlorophenoxy)-4-[(tetrahydro-2H-pyran-4-ylmethyl)amino]-1H-benzimidazol-1-yl}-N-cyclopropyl-2-methylbenzamide]"
9,0.2,"Cc1cc(-n2cnc3c(NCC4CCOCC4)cc(Oc4cccc(F)c4F)cc32)ccc1C(=O)NC1CC1 [Example 25, N-cyclopropyl-4-{6-(2,3-difluorophenoxy)-4-[(tetrahydro-2H-pyran-4-ylmethyl)amino]-1H-benzimidazol-1-yl}-2-methylbenzamide]"
10,1.8,"Cc1cc(F)cc(Oc2cc(NCCC(F)(F)F)c3ncn(-c4ccc(C(=O)NC5CC5)c(C)c4)c3c2)c1 [Example 26, N-cyclopropyl-4-{6-(3-fluoro-5-methylphenoxy)-4-[(3,3,3-trifluoropropyl)amino]-1H-benzimidazol-1-yl}-2-methylbenzamide]"
11,1.4,"Cc1cc(-n2cnc3c(NCCC(F)(F)F)cc(Oc4ccc(F)c(F)c4)cc32)ccc1C(=O)NC1CC1 [Example 27, N-cyclopropyl-4-{6-(3,4-difluorophenoxy)-4-[(3,3,3-trifluoropropyl)amino]-1H-benzimidazol-1-yl}-2-methylbenzamide]"
12,3.1,"Cc1cc(-n2cnc3c(NCCC(F)(F)F)cc(Oc4ccc(Cl)c(F)c4)cc32)ccc1C(=O)NC1CC1 [Example 28, 4-{6-(4-Chloro-3-fluorophenoxy)-4-[(3,3,3-trifluoropropyl)amino]-1H-benzimidazol-1-yl}-N-cyclopropyl-2-methylbenzamide]"
13,0.9,"COc1ccc(Oc2cc(NCCC(F)(F)F)c3ncn(-c4ccc(C(=O)NC5CC5)c(C)c4)c3c2)c(F)c1 [Example 29, N-cyclopropyl-4-{6-(2-fluoro-4-methoxyphenoxy)-4-[(3,3,3-trifluoropropyl)amino]-1H-benzimidazol-1-yl}-2-methylbenzamide]"
